Measurements from PubChem BioAssay (NCI).
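Cultured in 96-well plates, cells were exposed to test compound for 48 hours across five concentrations. The concentration for full growth arrest is given as TGI.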

Columns and labels:
Experiment in all cases: inhibition of tumour cell growth, NCI panel, 48 h
XF 498 CNS = system: XF 498 CNS
SK-MEL-2 melanoma = system: SK-MEL-2 melanoma
HCC-2998 colon = system: HCC-2998 colon
IGROV1 ovarian = system: IGROV1 ovarian
LXFL 529 NSCLC = system: LXFL 529 NSCLC
RXF 393 renal = system: RXF 393 renal
NCI-H522 lung = system: NCI-H522 lung
KM12 colon = system: KM12 colon
HT29 colon = system: HT29 colon
NCI-H460 lung = system: NCI-H460 lung
NCI-H23 lung = system: NCI-H23 lung
SK-MEL-28 melanoma = system: SK-MEL-28 melanoma
COLO 205 colon = system: COLO 205 colon
UACC-62 melanoma = system: UACC-62 melanoma
LOX IMVI melanoma = system: LOX IMVI melanoma
OVCAR-5 ovarian = system: OVCAR-5 ovarian
KM20L2 colon = system: KM20L2 colon
SNB-78 CNS = system: SNB-78 CNS
SF-268 CNS = system: SF-268 CNS
CAKI-1 renal = system: CAKI-1 renal
HOP-62 NSCLC = system: HOP-62 NSCLC
SNB-19 CNS = system: SNB-19 CNS
DLD-1 colon = system: DLD-1 colon
CCRF-CEM leukemia = system: CCRF-CEM leukemia
DMS 273 small cell lung = system: DMS 273 small cell lung
M19-MEL melanoma = system: M19-MEL melanoma
HOP-92 NSCLC = system: HOP-92 NSCLC
HL-60(TB) leukemia = system: HL-60(TB) leukemia
SNB-75 CNS = system: SNB-75 CNS
786-0 renal = system: 786-0 renal
A549 NSCLC = system: A549 NSCLC
TK-10 renal = system: TK-10 renal
EKVX NSCLC = system: EKVX NSCLC
A498 renal = system: A498 renal
M14 melanoma = system: M14 melanoma
SK-MEL-5 melanoma = system: SK-MEL-5 melanoma
ACHN renal = system: ACHN renal
K-562 leukemia = system: K-562 leukemia
MALME-3M melanoma = system: MALME-3M melanoma
HOP-18 NSCLC = system: HOP-18 NSCLC
SF-539 CNS = system: SF-539 CNS
HCT-116 colon = system: HCT-116 colon
MOLT-4 leukemia = system: MOLT-4 leukemia
U251 CNS = system: U251 CNS
SW-620 colon = system: SW-620 colon
SF-295 CNS = system: SF-295 CNS
RPMI-8226 leukemia = system: RPMI-8226 leukemia
DMS 114 small cell lung = system: DMS 114 small cell lung
UO-31 renal = system: UO-31 renal
OVCAR-8 ovarian = system: OVCAR-8 ovarian
SK-OV-3 ovarian = system: SK-OV-3 ovarian
SN12C renal = system: SN12C renal
UACC-257 melanoma = system: UACC-257 melanoma
OVCAR-4 ovarian = system: OVCAR-4 ovarian
HCT-15 colon = system: HCT-15 colon
NCI-H226 lung = system: NCI-H226 lung
OVCAR-3 ovarian = system: OVCAR-3 ovarian
SR leukemia = system: SR leukemia
RXF-631 renal = system: RXF-631 renal

Measured: TGI

CSC(SC)=C1Sc2cccc(Cl)c2S1
88.1 µM: RXF 393 renal
44.9 µM: HCC-2998 colon
65.8 µM: HOP-92 NSCLC
45.9 µM: HL-60(TB) leukemia
63.8 µM: NCI-H522 lung
76.9 µM: XF 498 CNS
41.3 µM: COLO 205 colon
48.8 µM: SK-MEL-2 melanoma
79.8 µM: DMS 114 small cell lung
not listed: OVCAR-3 ovarian | SR leukemia | RXF-631 renal
> 100 µM: all other assays above

C#CC[C@]12CC(=O)CC[C@H]1CC1(C2)OCCO1
not listed: XF 498 CNS | HT29 colon | NCI-H23 lung | LOX IMVI melanoma | OVCAR-5 ovarian | HOP-92 NSCLC | EKVX NSCLC | SF-295 CNS
> 100 µM: all other assays above

Cc1cc2c(=O)cc(-c3ccncc3)oc2c(C(N)=O)c1C
not listed: NCI-H522 lung | KM12 colon | CAKI-1 renal | DLD-1 colon | A498 renal | M14 melanoma | SK-MEL-5 melanoma | K-562 leukemia | DMS 114 small cell lung | OVCAR-4 ovarian | RXF-631 renal
> 100 µM: all other assays above

COC(=O)C(Cc1ccc2c(c1)OCO2)(NC(=O)c1ccccc1)P(=O)(OC)OC (configuration not stated)
not listed: 786-0 renal | MALME-3M melanoma | HOP-18 NSCLC | OVCAR-3 ovarian
> 100 µM: all other assays above

CC1CC(=O)C(CC(=O)O)[C@H]1C(C(=O)C(=O)Nc1cc(Cl)ccc1Cl)[N+](=O)[O-] (some centres not stated)
not listed: SK-MEL-2 melanoma | LXFL 529 NSCLC | NCI-H23 lung | SNB-78 CNS | DMS 273 small cell lung | M14 melanoma | MALME-3M melanoma | HCT-116 colon | MOLT-4 leukemia | UACC-257 melanoma | OVCAR-4 ovarian | RXF-631 renal
> 100 µM: all other assays above
